Test results taken from patent US20250143307A1 (priority 2021, published 2025).

Experiments:
[1] = Surface charge determination by fluorescein test; type: physicochemical; conditions: activated glass coverslips, spin-coated, baked at 110° C. for 60 minutes
Method: Surface cationic density (N^+/cm^2) was calculated using UV/Vis absorbance of fluorescein. Fluorescein dye molecules (negatively charged) strongly bind to quaternary amino groups (positively charged) belonging to the polymeric chain. The stoichiometry of fluorescein binding is estimated at one dye molecule per four quaternary ammonium moieties. Treated plates were placed in a 1% fluorescein aqueous solution for five minutes, and then rinsed and sonicated in distilled water for several minutes in order to remove physisorbed fluorescein. Plates were rinsed with distilled water and immersed in 3 mL of CTAB 0.5% (aqueous solution of cetyltrimehylammonium bromide) along with PBS (Phosphate-Buffered Saline) (90% CTAB/10% PBS) and sonicated for 10 minutes. The optical density of chemisorbed fluorescein was measured at 501 nm wavelength.

[2] = Manual friction / abrasion resistance of electrostatically sprayed coatings on glass slides; type: physicochemical; conditions: glass slide
Method: A glass slide was treated according to the following protocol: • 1) The surface was prepared by cleaning with isopropanol, and allowed to dry; • 2) The sprayer was held about 1 m from the target surface. • 3) The titanium anatase phase in aqueous solution (a mixture of peroxotitanic acid and peroxo-modified anatase sol 0.8%) was sprayed onto the surface using an electrostatic sprayer to form a coating on the target surface. • 4) The surface was allowed to dry for 5 to 10 minutes. • 5) The electrostatic sprayer was rinsed with distilled water. • 6) The biocidal polymer coating solution was added to the sprayer tank. • 7) The biocidal polymer coating solution was sprayed onto the surface at a 1 m distance away from the surface. • 8) The surface was examined to ensure it was not over-saturated with coating solution. • 9) The surface was allowed to dry for several hours.
A second glass slide was treated according to the protocol described above, except the surface was coated with the biocidal polymer solution first, followed by the titanium anatase phase.
In both methods, it was observed that the coating resisted repeated manual friction (over 20 cycles) using both wetted and dry paper towel, cotton-based cloth, and polyester/polypropylene wipes.
Treated and control glass slides were transferred to a 1% fluorescein solution for 10 minutes. […]

SMILES: CCCCCCCCCCCCCCCCCC[N+](C)(C)CC(=O)c1ccc(O)c(O)c1
- Calculated surface cationic density [1]: 4×10^14 cations/cm^2

SMILES: CCCCCCCCCCCCCCCCCC[N+](C)(C)CCC[Si](OC)(OC)OC.[Cl-] [octadecyldimethyl(3-trimethoxysilylpropyl)ammonium chloride]
- resistance of coating to repeated manual friction ([2]; sprayed with titanium anatase 0.8%, wetted and dry paper towel, cotton cloth, polyester/polypropylene wipes): did not resist manual friction
- abrasion resistance by fluorescein test after manual friction ([2]; titanium anatase sprayed first, then the coating solution): did not resist minor abrasion
